ChEMBL document CHEMBL4725409, “Understanding and Improving the Membrane Permeability of VH032-Based PROTACs” (ACS Med Chem Lett, 2020)

Assays:
[1] = Partition coefficient, logD of the compound in 1,9-decadiene and phosphate buffer at pH 7.4 measured after 30 mins under shaking condition by LC-MS analysis; format: physicochemical
[2] = Permeability of the compound in phosphate buffer containing 5% DMSO at pH 7.4 incubated for 15 hrs by PAMPA based LC/MS analysis; format: ADME; conditions: pH 7.4, 15 h

SMILES | logD hydrocarbon water at 0.5 h [1] | Peff [2]
Cc1ncsc1-c1ccc(CNC(=O)[C@@H]2C[C@@H](O)CN2C(=O)[C@@H](NC(=O)COCCOCCOCCNC(=O)C[C@@H]2N=C(c3ccc(Cl)cc3)c3c(sc(C)c3C)-n3c(C)nnc32)C(C)(C)C)cc1 | -1.6 | –
CC(=O)N[C@H](C(=O)N1C[C@H](O)C[C@H]1C(=O)NCc1ccc(-c2scnc2C)cc1)C(C)(C)SCCOCCNC(=O)C[C@@H]1N=C(c2ccc(Cl)cc2)c2c(sc(C)c2C)-n2c(C)nnc21 | -3.8 | –
CC(=O)N1c2ccc(-c3ccc(C(=O)NCCOCCOCCOCCOCC(=O)N[C@H](C(=O)N4C[C@H](O)C[C@H]4C(=O)NCc4ccc(-c5scnc5C)cc4)C(C)(C)C)cc3)cc2[C@H](Nc2ccc(Cl)cc2)C[C@@H]1C | -0.7 | –
Cc1ncsc1-c1ccc(CNC(=O)[C@@H]2C[C@@H](O)CN2C(=O)[C@@H](NC(=O)COCCOCCOCCOCC(=O)N[C@H](C(=O)N2C[C@H](O)C[C@H]2C(=O)NCc2ccc(-c3scnc3C)cc2)C(C)(C)C)C(C)(C)C)cc1 | -3.8 | 0.009 10^-6 cm/s
CC(=O)N[C@H](C(=O)N1C[C@H](O)C[C@H]1C(=O)NCc1ccc(-c2scnc2C)cc1)C(C)(C)SCCCCNC(=O)C[C@@H]1N=C(c2ccc(Cl)cc2)c2c(sc(C)c2C)-n2c(C)nnc21 | -3.8 | –
Cc1ncsc1-c1ccc(CNC(=O)[C@@H]2C[C@@H](O)CN2C(=O)[C@@H](NC(=O)[C@H](Cc2ccccc2)NC(=O)COCCOCCOCCNC(=O)C[C@@H]2N=C(c3ccc(Cl)cc3)c3c(sc(C)c3C)-n3c(C)nnc32)C(C)(C)C)cc1 | -1.6 | –
Cc1ncsc1-c1ccc(CNC(=O)[C@@H]2C[C@@H](O)CN2C(=O)[C@@H](NC(=O)Cc2ccccc2)C(C)(C)C)cc1 | -0.7 | –
CC(=O)N1c2ccc(-c3ccc(C(=O)NCCOCCOCC(=O)N[C@H](C(=O)N4C[C@H](O)C[C@H]4C(=O)NCc4ccc(-c5scnc5C)cc4)C(C)(C)C)cc3)cc2[C@H](Nc2ccc(Cl)cc2)C[C@@H]1C | -0.7 | –
Cc1ncsc1-c1ccc(CNC(=O)[C@@H]2C[C@@H](O)CN2C(=O)[C@@H](NC(=O)CCOCCOCCOCCNC(=O)Cc2ccccc2)C(C)(C)C)cc1 | -2.2 | –
CC(=O)N[C@H](C(=O)N1C[C@H](O)C[C@H]1C(=O)NCc1ccc(-c2scnc2C)cc1)C(C)(C)SCCOCCOCCNC(=O)C[C@@H]1N=C(c2ccc(Cl)cc2)c2c(sc(C)c2C)-n2c(C)nnc21 | -4.3 | –
Cc1ncsc1-c1ccc(CNC(=O)[C@@H]2C[C@@H](O)CN2C(=O)[C@@H](OC(=O)CCOCCOCCOCCNC(=O)Cc2ccccc2)C(C)(C)C)cc1 | -1.6 | –
Cc1ncsc1-c1ccc(CNC(=O)[C@@H]2C[C@@H](O)CN2C(=O)[C@@H](NC(=O)COCCOCCOCCOCCOCCOCC(=O)N[C@H](C(=O)N2C[C@H](O)C[C@H]2C(=O)NCc2ccc(-c3scnc3C)cc2)C(C)(C)C)C(C)(C)C)cc1 | -4.3 | 0.005 10^-6 cm/s
Cc1ncsc1-c1ccc(CNC(=O)[C@@H]2C[C@@H](O)CN2C(=O)[C@@H](NC(=O)COCCOCCNC(=O)C[C@@H]2N=C(c3ccc(Cl)cc3)c3c(sc(C)c3C)-n3c(C)nnc32)C(C)(C)C)cc1 | -1.1 | –
Cc1ncsc1-c1ccc(CNC(=O)[C@@H]2C[C@H](O)CN2C(=O)[C@@H](NC(=O)COCCOCCOCCOCCOCCOCC(=O)N[C@H](C(=O)N2C[C@@H](O)C[C@H]2C(=O)NCc2ccc(-c3scnc3C)cc2)C(C)(C)C)C(C)(C)C)cc1 | -3.2 | –
